According to US8415469B2, “Compounds and methods for kinase modulation, and indications therefor” (Plexxikon Inc., priority 2005, dated 2013):

Key:
Format in all cases: biochemical
Fms = molecular target: T1, Fms (Homo sapiens, UniProt P07333); test: AlphaScreen kinase assay, Fms; details: read-out: IC50, activity toward kinase Fms
T1 construct: purchased Upstate Biotechnology

Ret = molecular target: T2, Ret (Homo sapiens, UniProt P07949); test: AlphaScreen kinase assay, Ret; details: read-out: IC50, activity toward kinase Ret
T2 construct: P1378.pET-SF BI-PTP RET H661-R1012 HIS; made in house
T2 sequence (P07949 with tags, fused parts or gaps): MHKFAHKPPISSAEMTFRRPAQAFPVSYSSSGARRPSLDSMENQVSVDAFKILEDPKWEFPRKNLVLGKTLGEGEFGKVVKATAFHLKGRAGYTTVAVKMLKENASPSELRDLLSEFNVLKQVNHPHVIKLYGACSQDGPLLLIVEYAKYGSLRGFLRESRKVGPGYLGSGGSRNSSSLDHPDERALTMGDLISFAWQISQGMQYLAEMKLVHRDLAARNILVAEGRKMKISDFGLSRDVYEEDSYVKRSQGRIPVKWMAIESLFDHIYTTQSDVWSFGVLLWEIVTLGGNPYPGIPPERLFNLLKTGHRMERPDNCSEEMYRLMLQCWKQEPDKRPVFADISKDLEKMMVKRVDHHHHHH

Kit = molecular target: T3, Kit (Homo sapiens, UniProt P10721); test: AlphaScreen kinase assay, Kit; details: read-out: IC50, activity toward kinase Kit
T3 construct: P1332.N6 BI PTP KIT M552-K948-X COD; His6 (N); made in house; host or cells: E. coli (PTP1B co-expressed)

B-Raf V600E = molecular target: T4, B-Raf V600E (Homo sapiens, UniProt P15056, V600E); test: AlphaScreen kinase assay, B-Raf V600E; details: read-out: IC50, activity toward kinase B-Raf V600E
T4 construct: P4254. pFastBacBD-CDC37 BRAF D437-K722-X, V600E; His6 with pFastBac HT leader (TEV site) (N); made in house; host or cells: Sf9 (baculovirus; chaperone CDC37 co-expressed)

FGFR1 = molecular target: T5, FGFR1 (Homo sapiens, UniProt P11362, C488A/C584S); test: AlphaScreen kinase assay, FGFR1; details: read-out: IC50, activity toward kinase FGFR
T5 construct: P1351.pET N6 BI-PTP FGFR A458-E765-X C488A, C584S; made in house; host or cells: E. coli (PTP1B co-expressed)

Kdr = molecular target: T6, Kdr (Homo sapiens, UniProt P35968); test: Z'-Lyte FRET kinase assay (Invitrogen), Kdr; details: read-out: IC50, activity toward kinase Kdr
T6 construct: purchased Invitrogen (assay run by Invitrogen)
T6 sequence (P35968 20-1356): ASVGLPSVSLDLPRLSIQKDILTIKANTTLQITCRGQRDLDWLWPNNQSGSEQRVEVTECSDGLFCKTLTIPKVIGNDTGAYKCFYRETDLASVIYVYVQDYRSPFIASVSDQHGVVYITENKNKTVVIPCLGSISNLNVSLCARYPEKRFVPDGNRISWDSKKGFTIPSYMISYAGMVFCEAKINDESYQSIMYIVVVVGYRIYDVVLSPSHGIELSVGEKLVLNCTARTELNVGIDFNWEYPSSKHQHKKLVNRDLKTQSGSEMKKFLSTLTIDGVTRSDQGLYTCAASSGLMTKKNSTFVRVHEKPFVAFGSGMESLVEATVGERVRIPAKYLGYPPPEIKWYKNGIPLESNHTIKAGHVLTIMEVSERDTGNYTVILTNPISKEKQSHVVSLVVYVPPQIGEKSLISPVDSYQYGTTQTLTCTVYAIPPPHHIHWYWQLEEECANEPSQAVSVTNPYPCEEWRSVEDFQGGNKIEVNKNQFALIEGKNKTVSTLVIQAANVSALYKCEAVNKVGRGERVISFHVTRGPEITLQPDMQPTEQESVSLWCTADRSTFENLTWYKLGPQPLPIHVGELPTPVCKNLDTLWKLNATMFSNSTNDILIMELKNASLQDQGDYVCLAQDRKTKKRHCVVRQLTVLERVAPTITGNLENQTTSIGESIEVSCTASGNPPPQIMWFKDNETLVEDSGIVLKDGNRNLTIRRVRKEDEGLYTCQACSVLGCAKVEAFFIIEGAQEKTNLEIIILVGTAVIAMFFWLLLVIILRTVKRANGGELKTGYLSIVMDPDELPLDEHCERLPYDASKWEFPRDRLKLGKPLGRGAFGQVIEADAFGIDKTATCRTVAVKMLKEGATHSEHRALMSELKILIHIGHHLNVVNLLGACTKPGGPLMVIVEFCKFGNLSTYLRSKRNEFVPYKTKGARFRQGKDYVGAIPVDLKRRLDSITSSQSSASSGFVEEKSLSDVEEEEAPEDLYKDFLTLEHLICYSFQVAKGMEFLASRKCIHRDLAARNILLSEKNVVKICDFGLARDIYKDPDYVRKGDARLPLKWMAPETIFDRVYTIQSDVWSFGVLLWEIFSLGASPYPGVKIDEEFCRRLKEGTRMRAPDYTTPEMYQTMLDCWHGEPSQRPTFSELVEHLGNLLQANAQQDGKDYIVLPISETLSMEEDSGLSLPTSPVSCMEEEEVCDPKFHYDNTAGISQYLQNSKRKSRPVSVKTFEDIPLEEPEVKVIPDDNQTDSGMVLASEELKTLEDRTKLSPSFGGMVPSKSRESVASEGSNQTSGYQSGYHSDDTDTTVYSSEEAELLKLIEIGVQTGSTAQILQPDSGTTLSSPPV

T5 sequence (P11362 458-765 C488A/C584S): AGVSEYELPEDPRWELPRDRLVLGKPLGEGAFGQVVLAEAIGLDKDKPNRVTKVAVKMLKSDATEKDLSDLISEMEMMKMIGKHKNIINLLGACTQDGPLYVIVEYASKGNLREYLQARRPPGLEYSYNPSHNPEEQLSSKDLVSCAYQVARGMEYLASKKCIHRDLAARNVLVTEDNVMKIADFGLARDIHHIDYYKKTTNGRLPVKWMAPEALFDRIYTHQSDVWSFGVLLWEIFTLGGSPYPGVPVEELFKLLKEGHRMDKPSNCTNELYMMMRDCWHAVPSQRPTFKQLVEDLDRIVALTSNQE
T1 sequence (P07333 20-972): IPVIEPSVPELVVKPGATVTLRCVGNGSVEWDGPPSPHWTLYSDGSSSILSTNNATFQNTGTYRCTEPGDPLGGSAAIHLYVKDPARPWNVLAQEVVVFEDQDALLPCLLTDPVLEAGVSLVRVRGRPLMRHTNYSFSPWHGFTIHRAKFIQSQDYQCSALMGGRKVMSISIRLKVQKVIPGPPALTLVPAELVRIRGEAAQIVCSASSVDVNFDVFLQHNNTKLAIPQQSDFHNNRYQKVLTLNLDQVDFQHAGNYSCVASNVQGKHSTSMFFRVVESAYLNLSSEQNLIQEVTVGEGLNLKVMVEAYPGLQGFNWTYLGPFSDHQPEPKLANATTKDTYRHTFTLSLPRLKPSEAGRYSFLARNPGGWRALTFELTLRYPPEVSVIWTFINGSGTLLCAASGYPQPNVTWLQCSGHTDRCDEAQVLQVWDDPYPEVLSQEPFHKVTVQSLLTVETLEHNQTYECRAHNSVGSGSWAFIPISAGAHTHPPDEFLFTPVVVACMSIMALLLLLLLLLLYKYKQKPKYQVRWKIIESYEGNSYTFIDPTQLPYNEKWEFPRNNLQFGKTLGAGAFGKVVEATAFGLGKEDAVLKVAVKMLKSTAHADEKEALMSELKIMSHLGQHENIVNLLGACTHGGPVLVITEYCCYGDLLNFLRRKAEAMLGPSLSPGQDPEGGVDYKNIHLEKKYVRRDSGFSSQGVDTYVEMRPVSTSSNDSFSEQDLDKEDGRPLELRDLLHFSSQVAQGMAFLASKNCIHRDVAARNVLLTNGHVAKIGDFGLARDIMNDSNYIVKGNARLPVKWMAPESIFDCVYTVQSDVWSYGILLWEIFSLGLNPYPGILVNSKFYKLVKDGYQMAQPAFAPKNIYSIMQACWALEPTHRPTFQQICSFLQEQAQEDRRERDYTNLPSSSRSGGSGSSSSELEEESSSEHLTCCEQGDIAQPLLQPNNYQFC
T3 sequence (P10721 with tags, fused parts or gaps): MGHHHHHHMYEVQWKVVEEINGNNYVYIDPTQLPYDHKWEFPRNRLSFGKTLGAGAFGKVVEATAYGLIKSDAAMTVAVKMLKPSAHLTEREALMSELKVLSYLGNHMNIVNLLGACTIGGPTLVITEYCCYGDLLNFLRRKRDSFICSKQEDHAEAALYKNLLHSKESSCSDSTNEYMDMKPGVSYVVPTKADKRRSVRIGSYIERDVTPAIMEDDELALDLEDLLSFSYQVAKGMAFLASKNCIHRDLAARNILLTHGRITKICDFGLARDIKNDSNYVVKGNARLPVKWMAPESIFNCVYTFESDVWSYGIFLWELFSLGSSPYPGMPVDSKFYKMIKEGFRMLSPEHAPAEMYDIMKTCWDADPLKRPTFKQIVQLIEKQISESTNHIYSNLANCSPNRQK
T4 sequence (P15056 with tags, fused parts or gaps V600E): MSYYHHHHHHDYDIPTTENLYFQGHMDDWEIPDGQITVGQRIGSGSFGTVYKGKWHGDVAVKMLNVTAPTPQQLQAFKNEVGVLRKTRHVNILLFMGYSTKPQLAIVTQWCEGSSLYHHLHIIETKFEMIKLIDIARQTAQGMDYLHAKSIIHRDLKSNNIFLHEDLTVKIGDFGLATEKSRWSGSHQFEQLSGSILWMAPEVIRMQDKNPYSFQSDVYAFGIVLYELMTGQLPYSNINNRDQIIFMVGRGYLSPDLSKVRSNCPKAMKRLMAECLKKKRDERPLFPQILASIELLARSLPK

Row | SMILES | IC50 (Fms) [µM] | IC50 (Ret) [µM] | IC50 (Kit) [µM] | IC50 (B-Raf V600E) [µM] | IC50 (FGFR1) [µM] | IC50 (Kdr) [µM]
1 | NC(=O)c1cccc(-c2cnc3[nH]cc(C(=O)c4cccc(O)c4F)c3c2)c1 [Compound P-0034, 3-[3-(2-Fluoro-3-hydroxy-benzoyl)-1H-pyrrolo[2,3-b]pyridin-5-yl]benzamide] | ≤ 10 | ≤ 10 | ≤ 10 | ≤ 10 | ≤ 10 | 
2 | COc1cc(OC)cc(C(=O)c2c[nH]c3ncc(-c4cccc(NS(C)(=O)=O)c4)cc23)c1 [Compound P-1426, N-{3-[3-(3,5-Dimethoxy-benzoyl)-1H-pyrrolo[2,3-b]pyridin-5-yl]-phenyl}-methanesulfonamide] | ≤ 10 |  | ≤ 10 | ≤ 10 | ≤ 10 | ≤ 10
3 | O=C(c1cccc(O)c1)c1c[nH]c2ncc(Nc3ccccc3)cc12 [Compound P-0025] | ≤ 10 | ≤ 10 |  | ≤ 10 | ≤ 10 | ≤ 10
4 | Nc1cccc(-c2cnc3[nH]cc(C(=O)c4cccc(O)c4F)c3c2)c1 [Compound P-0004, [5-(3-amino-phenyl)-1H-pyrrolo[2,3-b]pyridin-3-yl]-(2-fluoro-3-hydroxy-phenyl)methanone] | ≤ 10 | ≤ 10 | ≤ 10 | ≤ 10 | ≤ 10 | 
5 | CC(=O)Nc1cccc(-c2cnc3[nH]cc(C(=O)c4cc(O)ccc4F)c3c2)c1 [Compound P-0001] | ≤ 10 | ≤ 10 | ≤ 10 | ≤ 10 | ≤ 10 | ≤ 10
6 | Fc1cc(F)cc(-c2ccnc3[nH]cc(Sc4ccccn4)c23)c1 [Compound P-0106] |  |  |  |  |  | ≤ 10
7 | O=C(c1cccc(O)c1)c1c[nH]c2nccc(-c3cc(F)cc(F)c3)c12 [Compound P-0039] |  | ≤ 10 | ≤ 10 | ≤ 10 | ≤ 10 | ≤ 10
8 | Nc1cccc(-c2cnc3[nH]cc(C(=O)c4cc(O)ccc4F)c3c2)c1 [Compound P-0002] | ≤ 10 | ≤ 10 | ≤ 10 | ≤ 10 | ≤ 10 | 
9 | COc1cccc(C(=O)c2c[nH]c3ncc(-c4cccc(NC(C)=O)c4)cc23)c1F [Compound P-1336, N-{3-[3-(2-Fluoro-3-methoxy-benzoyl)-1H-pyrrolo[2,3-b]pyridin-5-yl]-phenyl}-acetamide] | ≤ 10 |  | ≤ 10 | ≤ 10 | ≤ 10 | 
10 | Nc1cccc(-c2cnc3[nH]cc(C(=O)c4cccc(O)c4)c3c2)c1 [Compound P-0003] | ≤ 10 | ≤ 10 | ≤ 10 | ≤ 10 | ≤ 10 | ≤ 10

Next, values leading:

Row | IC50 (Fms) [µM] | IC50 (Ret) [µM] | IC50 (Kit) [µM] | IC50 (B-Raf V600E) [µM] | IC50 (FGFR1) [µM] | IC50 (Kdr) [µM] | SMILES
11 | ≤ 10 | ≤ 10 | ≤ 10 | ≤ 10 | ≤ 10 |  | CS(=O)(=O)Nc1cccc(-c2cnc3[nH]cc(C(=O)c4cccc(O)c4F)c3c2)c1 [Compound P-0038, N-{3-[3-(2-Fluoro-3-hydroxy-benzoyl)-1H-pyrrolo[2,3-b]pyridin-5-yl]-phenyl}-methanesulfonamide]
12 | ≤ 10 | ≤ 10 | ≤ 10 | ≤ 10 | ≤ 10 | ≤ 10 | Cc1c(O)cccc1C(=O)c1c[nH]c2ncc(-c3cccnc3)cc12 [Compound P-0006, (3-Hydroxy-2-methyl-phenyl)-(5-pyridin-3-yl-1H-pyrrolo[2,3b]pyridin-3-yl)-methanone]
13 | ≤ 10 |  | ≤ 10 | ≤ 10 | ≤ 10 | ≤ 10 | OCCOc1ccc(F)c(Cc2c[nH]c3ncc(-c4cccnc4)cc23)c1F [Compound P-1394, 2-[2,4-Difluoro-3-(5-pyridin-3-yl-1H-pyrrolo[2,3-b]pyridin-3-ylmethyl)-phenoxy]-ethanol]
14 |  | ≤ 10 |  |  | ≤ 10 |  | Cc1ccc(S(=O)(=O)NCc2c[nH]c3ncccc23)cc1 [Compound P-0058]
15 | ≤ 10 |  | ≤ 10 | ≤ 10 | ≤ 10 | ≤ 10 | CCCS(=O)(=O)Nc1ccc(F)c(C(=O)c2c[nH]c3ncc(OC)cc23)c1F [Compound P-0806, Propane-1-sulfonic acid [2,4-difluoro-3-(5-methoxy-1H-pyrrolo[2,3-b]pyridine-3-carbonyl)-phenyl]-amide]
16 | ≤ 10 |  | ≤ 10 | ≤ 10 | ≤ 10 | ≤ 10 | CCCCNC(=O)Nc1ccc(F)c(C(=O)c2c[nH]c3ncc(-c4cccnc4)cc23)c1F [Compound P-1318, 1-Butyl-3-[2,4-difluoro-3-(5-pyridin-3-yl-1H-pyrrolo[2,3-b]pyridine-3-carbonyl)-phenyl]-urea]
17 | ≤ 10 | ≤ 10 | ≤ 10 | ≤ 10 | ≤ 10 |  | CS(=O)(=O)c1cccc(-c2cnc3[nH]cc(C(=O)c4cccc(O)c4F)c3c2)c1 [Compound P-0026, (2-Fluoro-3-hydroxy-phenyl)-[5-(3-methanesulfonylphenyl)1H-pyrrolo[2,3-b]pyridin-3-yl]-methanone]
18 | ≤ 10 |  | ≤ 10 | ≤ 10 | ≤ 10 | ≤ 10 | CCCC(=O)Nc1ccc(F)c(Cc2c[nH]c3ncc(-c4cccnc4)cc23)c1F [Compound P-1280]
19 | ≤ 10 | ≤ 10 | ≤ 10 | ≤ 10 | ≤ 10 |  | CS(=O)(=O)c1cccc(-c2cnc3[nH]cc(C(=O)c4cc(O)ccc4F)c3c2)c1 [Compound P-0008, (2-Fluoro-5-hydroxy-phenyl)-[5-(3-methanesulfonyl-phenyl)-1H-pyrrolo[2,3-b]pyridin-3-yl]-methanone]
20 | ≤ 10 | ≤ 10 | ≤ 10 | ≤ 10 | ≤ 10 | ≤ 10 | Oc1ccc(F)c(Cc2c[nH]c3ncc(-c4cccnc4)cc23)c1F [Compound P-0078, 2,4-difluoro-3-(5-pyridin-3-yl-1H-pyrrolo[2,3-b]pyridin-3-ylmethyl)-phenol]
21 | ≤ 10 | ≤ 10 | ≤ 10 | ≤ 10 | ≤ 10 | ≤ 10 | O=C(Nc1ccc(Cc2c[nH]c3ncccc23)cc1)Nc1cccc(C(F)(F)F)c1 [Compound P-0262, 1-[4-(1H-Pyrrolo[2,3-b]pyridin-3-ylmethyl)-phenyl]-3-(3-trifluoromethyl-phenyl)-urea]
22 | ≤ 10 | ≤ 10 | ≤ 10 | ≤ 10 | ≤ 10 |  | CC(=O)Nc1cccc(-c2cnc3[nH]cc(C(=O)c4cccc(O)c4F)c3c2)c1 [Compound P-0035, N-{3-[3-(2-Fluoro-3-hydroxy-benzoyl)-1H-pyrrolo[2,3-b]pyridin-5-yl]-phenyl}-acetamide]
23 |  | ≤ 10 | ≤ 10 | ≤ 10 | ≤ 10 | ≤ 10 | O=C(c1cccc(O)c1F)c1c[nH]c2ncc(-c3cccs3)cc12 [Compound P-0521, (2-fluoro-3-hydroxy-phenyl)-(5-thiophen-2-yl-1H-pyrrolo[2,3-b]pyridin-3-yl)-methanone]
24 |  | ≤ 10 | ≤ 10 | ≤ 10 | ≤ 10 | ≤ 10 | Cn1cc(C(F)(F)F)c(-c2ccc(S(=O)(=O)NCc3c[nH]c4ncccc34)s2)n1 [Compound P-0041]
